Measured values taken from US20060193893A1, “Medical devices” (ChemGenex Pharmaceuticals, Inc., priority 2005, published 2006).
Marks after values point to notes of the source that are not given here.

System: chorioallantoic membrane (CAM)
Assay: Effects of homoharringtonine in the early chicken chorioallantoic membrane (CAM) assay
Format: in vivo
Details: for CAM area, Day 4: Day 4 (start of treatment, matched groups); for CAM area, Day 4 / CAM increase (fold) / Artery length / CAM area, Day 5 / Relative artery length / Relative total vessel length / Relative vein length / Total vessel length / Vein length: mean ± SEM, n = 6; for CAM increase (fold): Day 4 to Day 5; for Artery length / CAM area, Day 5 / Relative artery length / Relative total vessel length / Relative vein length / Total vessel length / Vein length: Day 5
Procedure: Fertilized chicken eggs (HiChick Breeding Co, Kapunda, South Australia) were incubated for three days at 38° C. On Day 3 the embryos were cracked out of the egg and into a cup made of plastic piping, with plastic film stretched over the top to form a hammock for the egg to be suspended in. Two ml of DMEM containing penicillin and streptomycin was added to each cup prior to the egg being added. A Petri dish on the top maintained sterility. Incubation continued in a humidified 37° C. incubator.
On Day 4 the chorioallantoic membrane (CAM) begins to grow, and pictures were taken of each embryo at ×5 to measure the CAM area using image analysis software (Video Pro 32, Leading Edge Pty Ltd, South Australia). Embryos were then grouped according to their CAM area, with a control embryo in each for comparison. There were four matched embryos, treated with 6.25, 12.5 and 25 ng of homoharringtonine. Grouping is critical as in these early developmental stages changes in the CAM growth are dramatic. Relatively small differences in size on Day 4 translate to large differences in the CAM on Day 5, making it impossible to compare treatments. Substances were applied in methylcellulose discs, which were first dried under vacuum overnight. The methylcellulose discs were applied to the top of the CAM, and at the beginning of treatment were at least three to four-fold bigger than the CAM area, meaning treatment covered the entire CAM surface.
On Day 5 skim milk with contrast medium was injected into the CAM. Pictures were then taken at various levels of magnification up to ×63. Quantitative measurements were made from ×5 pictures. CAM area, and vein and artery lengths were measured using image analysis (Video Pro 32, Leading Edge Pty Ltd, South Australia). Relative vessel lengths were then calculated as the total length/CAM area. Statistical analysis was made using SigmaStat and OneWay ANOVA with p<0.05 as the level of significance.
FIG. 3A illustrates the normal organization of the CAM is uniform, with the major vein draining towards the left, and the artery branches coming over the edge of the top and bottom of the CAM. FIGS. 3B and 3C schematically illustrate tracing of the vein and artery branches, as performed for the measurement of vessel lengths.
The angiogenic inhibitor, homoharringtonine, was obtained from ChemGenex Therapeutics, Inc. (Menlo Park, Calif.) and was made to the appropriate concentration in sterile water. […] Homoharringtonine was applied at 6.25, 12.5 and 25 ng (11.3, 22.5 and 45 nM) doses, and compared with water treated controls. Homoharringtonine reduced the growth of the CAM to 42% of the control in the 25 ng treated CAM. […] The vein, artery and total vessel lengths were reduced to 15%, 18% and 17% of control, respectively.

`COC(=O)C[C@](O)(CCCC(C)(C)O)C(=O)O[C@@H]1C(OC)=C[C@]23CCCN2CCc2cc4c(cc2[C@H]13)OCO4` [Homoharringtonine, cephalotaxine, 4-methyl-2-hydroxy-2-(4-hydroxy-4-methylpentyl) butanediocate ester] was tested, and the “CAM area, Day 4” value (6.25 ng in methylcellulose disc) was 6.5 ± 1.6 pixels, the “CAM increase (fold)” value (6.25 ng) was 7.0 ± 0.4 ^a fold and the Artery length (6.25 ng) was 1573 ± 516^ pixels. The “CAM area, Day 5” value (6.25 ng) was 45.3 ± 11.6 pixels, the Relative artery length (6.25 ng) was 31.6 ± 4.5 ^a b length/CAM area and the “Relative total vessel length” value (6.25 ng) was 63.2 ± 7.7 ^b length/CAM area. For the same compound, the Relative vein length (6.25 ng) was 31.6 ± 4.6 ^b length/CAM area, the Total vessel length (6.25 ng) was 3055 ± 1003 pixels and the Vein length (6.25 ng) was 1482 ± 499^ pixels. The “CAM area, Day 4” value (12.5 ng in methylcellulose disc) was 6.3 ± 1.6^ pixels, the “CAM increase (fold)” value (12.5 ng) was 9.0 ± 1.0 ^b fold and the Artery length (12.5 ng) was 1787 ± 544 ^ pixels. The “CAM area, Day 5” value (12.5 ng) was 53.0 ± 11.6^ pixels, the “Relative total vessel length” value (12.5 ng) was 60.1 ± 7.5 ^b length/CAM area and the Relative vein length (12.5 ng) was 28.3 ± 4.4 ^b length/CAM area. For the same compound, the Total vessel length (12.5 ng) was 3351 ± 953 ^ pixels, the Vein length (12.5 ng) was 1564 ± 427 ^ pixels and the “embryo survival at 25 ng” value (25 ng dose) was “killed one of the smaller embryos”. For the same compound, the “artery length, % of control” value (25 ng group vs water control) was 18%, the “total vessel length, % of control” value (25 ng group vs water control) was 17% and the “vein length, % of control” value (25 ng group vs water control) was 15%. The “CAM area, Day 4” value (25 ng in methylcellulose disc) was 6.2 ± 1.5 pixels, the “growth of the CAM, % of the control” value (25 ng treated CAM vs water control) was 42% and the “CAM increase (fold)” value (25 ng) was 4.3 ± 0.7 ^a fold. The Artery length (25 ng) was 551 ± 265 ^a pixels, the “CAM area, Day 5” value (25 ng) was 30.2 ± 9.9 ^ pixels and the Relative artery length (25 ng) was 13.0 ± 4.3 ^a length/CAM area. For the same compound, the “Relative total vessel length” value (25 ng) was 24.3 ± 6.7 ^a length/CAM area, the Relative vein length (25 ng) was 11.3 ± 3.5 ^a length/CAM area and the Total vessel length (25 ng) was 909 ± 396 ^a pixels. For the same compound, the Vein length (25 ng) was 359 ± 143 ^a pixels and the “embryo survival at the initial doses” value (initial doses, above 25 ng, dose then reduced) was “resulted in the death of the embryos”.

`CC(=O)O[C@H]1C(=O)[C@@]2(C)[C@H]([C@H](OC(=O)c3ccccc3)[C@]3(O)C[C@H](OC(=O)[C@H](O)[C@@H](NC(=O)c4ccccc4)c4ccccc4)C(C)=C1C3(C)C)[C@]1(OC(C)=O)CO[C@@H]1C[C@@H]2O` [taxol] was tested, and the “qualitative changes at higher magnification (FIG. 5)” value (homoharringtonine 25 ng, taxol dose not given, vs water control) was “diffuse leakage of the red blood cells outside the vessels and the skeletons of larger vessels with no remaining blood flow”.
